Legend:
[1] = In vitro dicamba photo-release from photo-labile dicamba esters, tetrahydrofuran solvent (Example 26); assay type: physicochemical; details: THF, 0.1 mM ester
Summary of the method: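 Esters at 0.1 mM in THF, sealed in quartz tubes and exposed to simulated sunlight 14 h per day at 35 °C. Dicamba released was measured over the photolysis, with an unilluminated sample of the starting solution serving as dark control.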

velvetleaf [2] = assay: Greenhouse post-emergent control of velvetleaf by emulsifiable concentrates (Example 29); assay type: in vivo; details: three weeks after treatment
Summary of the method: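 Greenhouse velvetleaf 10–15 cm tall sprayed post-emergence with photo-labile ester emulsifiable concentrates at 140, 280, 420 and 560 g dicamba equivalent/ha, alongside dicamba diglycolamine salt at the same rates and untreated plants. Percent control scored three weeks after treatment.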

[3] = tested on: glyphosate-tolerant, dicamba-sensitive soy plants; assay: Humidome volatility injury to dicamba-sensitive plants (Example 31); details: assessed after three weeks in greenhouse
From the text: In this case, the diglycolamine salt of dicamba (CLARITY®) was used for comparison.
Dicamba photo-labile ester formulations from Example 28 were mixed with a commercial glyphosate formulation (ROUNDUP POWERMAX®) and diluted to provide a solution with a 0.5% dicamba equivalent concentrate of the ester (or dicamba diglycolamine salt) and 1.5% concentrate of glyphosate. The mixtures were sprayed at a 10 gallon per acre (93.5 liters per hectare) rate on soil in a plastic container (“humidome”) with a transparent lid. One soil container was sprayed with water as a control. Four glyphosate-tolerant, dicamba-sensitive soy plants between V2 and V3 stage were immediately placed on the sprayed soil and the domes attached to the trays with binder clips. The soy plants were in pots placed directly on the soil but with aluminum foil wrapped around the bottom to prevent uptake of dicamba or dicamba esters through the roots.
The closed containers were held for 24 hours in a growth chamber which was maintained at 35° C. with 40% relative humidity. The plants were then removed and grown in a greenhouse for three weeks. At this time plant injury and growth stage were assessed compared to the control treated with water only.

[4] = In vitro photo-release and hydrolytic release of dicamba in an aqueous medium (Example 35); assay type: physicochemical; details: 0.01 mM ester, 35° C.
Protocol: This Example describes the determination of photo-lability and hydrolytic lability of dicamba esters in an aqueous medium. 1 mM solutions of the esters were prepared in acetonitrile (or […] solutions of dicamba diesters). The solutions were then diluted with deionized water to a concentration of 0.01 mM (or 0.005 mM for diesters). The solutions were then transferred to quartz tubes and amber bottles and held in a growth chamber by the procedure of Example 26. A 14-hour day was generally used at a constant temperature of 35° C. Hydrolytic activity was assessed by measuring the increase in dicamba concentration after day zero in the amber (dark) bottles. […] Photolysis manifested itself as increased conversion in the quartz tubes compared to the dark control.

hemp sesbania = assay: Field testing of emulsifiable concentrates, post-emergent control (Example 38); assay type: in vivo
morning glory = assay: as above; assay type: in vivo
velvetleaf [5] = assay: as above; assay type: in vivo
Euphorbia species = assay: Field testing for post-emergent activity in the Southern Hemisphere (Example 39); assay type: in vivo; details: 9 as suspension concentrate, other esters as emulsifiable concentrates
Summary of the method: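 Southern Hemisphere field trial, post-emergence application on Euphorbia weeds. Esters applied as emulsifiable concentrates in aromatic solvent with emulsifiers, one ester as a suspension concentrate. Dicamba diglycolamine salt served as comparator.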

broadleaf weeds = assay: Control of broadleaf weeds by ester concentrates (statements of the description); assay type: in vivo
[6] = 280 and 420 g dicamba acid equivalent per hectare
[7] = 280 g dicamba acid equivalent per hectare, 11 or 21 days after treatment
[8] = 420 g dicamba acid equivalent per hectare, 11 or 21 days after treatment

COc1c(Cl)ccc(Cl)c1C(=O)OCc1ccccc1[N+](=O)[O-] [Ester 1a, 2-Nitrobenzyl Ester of Dicamba]
Dark Control % dicamba ([1]; initial solution kept away from the light source, analyzed at conclusion of study): 1% | Conversion to dicamba, 1 day ([1]; simulated sunlight 14 hours per day, 35° C., 1 day): 22% | Conversion to dicamba, 2 days ([1]; simulated sunlight 14 hours per day, 35° C., 2 days): 33% | Conversion to dicamba, 3 days ([1]; simulated sunlight 14 hours per day, 35° C., 3 days): 47% | Conversion to dicamba, 5 days ([1]; simulated sunlight 14 hours per day, 35° C., 5 days): 66% | Conversion to dicamba, 7 days ([1]; simulated sunlight 14 hours per day, 35° C., 7 days): 76% | % Control of velvetleaf, 140 g/ha (velvetleaf [2]; 140 g dicamba equivalent per hectare): 46% | % Control of velvetleaf, 280 g/ha (velvetleaf [2]; 280 g dicamba equivalent per hectare): 60% | % Control of velvetleaf, 420 g/ha (velvetleaf [2]; 420 g dicamba equivalent per hectare): 75% | % Control of velvetleaf, 560 g/ha (velvetleaf [2]; 560 g dicamba equivalent per hectare): 73% | % Injury ([3]; soy plants 24 hours in closed humidome over sprayed soil (0.5% dicamba equivalent + 1.5% glyphosate), 35° C.): 8% | Growth Stage ([3]; soy plants 24 hours in closed humidome over sprayed soil): 8 | Conversion to Dicamba, Dark, Day 0 ([4]; amber (dark) bottle, Day 0): 7% | Conversion to Dicamba, Dark, Day 1 ([4]; amber (dark) bottle, Day 1): 8% | Conversion to Dicamba, Dark, Day 2 ([4]; amber (dark) bottle, Day 2): 8% | Conversion to Dicamba, Dark, Day 3 ([4]; amber (dark) bottle, Day 3): 8% | Conversion to Dicamba, Dark, Day 4 ([4]; amber (dark) bottle, Day 4): 7% | Conversion to Dicamba, Dark, Day 7 ([4]; amber (dark) bottle, Day 7): 8% | Conversion to dicamba, Dark, Day 10 ([4]; amber (dark) bottle, Day 10): 8% | Conversion to Dicamba, Dark, Day 14 ([4]; amber (dark) bottle, Day 14): 8% | Conversion to Dicamba, Dark, Day 21 ([4]; amber (dark) bottle, Day 21): 8% | Conversion to Dicamba, Dark, Day 28 ([4]; amber (dark) bottle, Day 28): 8% | Conversion to Dicamba, Light, Day 0 ([4]; quartz tube, 14-hour day, Day 0): 7% | Conversion to Dicamba, Light, Day 1 ([4]; quartz tube, 14-hour day, Day 1): 13% | Conversion to Dicamba, Light, Day 2 ([4]; quartz tube, 14-hour day, Day 2): 16% | Conversion to Dicamba, Light, Day 3 ([4]; quartz tube, 14-hour day, Day 3): 18% | Conversion to Dicamba, Light, Day 4 ([4]; quartz tube, 14-hour day, Day 4): 21% | Conversion to Dicamba, Light, Day 7 ([4]; quartz tube, 14-hour day, Day 7): 29% | Conversion to dicamba, Light, Day 10 ([4]; quartz tube, 14-hour day, Day 10): 37% | Conversion to Dicamba, Light, Day 14 ([4]; quartz tube, 14-hour day, Day 14): 54% | Conversion to Dicamba, Light, Day 21 ([4]; quartz tube, 14-hour day, Day 21): 75% | Conversion to Dicamba, Light, Day 28 ([4]; quartz tube, 14-hour day, Day 28): 107% | post-emergent control of hemp sesbania compared with the dicamba salt, in words (hemp sesbania; [6]): equivalent to the dicamba salt | % control, 280 g/ha, Hemp sesbania (hemp sesbania; [7]): 95% | % control, 420 g/ha, Hemp sesbania (hemp sesbania; [8]): 98% | post-emergent control of morning glory compared with the dicamba salt, in words (morning glory; [6]): equivalent to the dicamba salt | % control, 280 g/ha, Morning glory (morning glory; [7]): 100% | % control, 420 g/ha, Morning glory (morning glory; [8]): 98% | post-emergent control of velvetleaf compared with the dicamba salt, in words (velvetleaf [5]; [6]): equivalent to the dicamba salt | % control, 280 g/ha, Velvetleaf (velvetleaf [5]; [7]): 86% | % control, 420 g/ha, Velvetleaf (velvetleaf [5]; [8]): 92% | % control, 0.25 lb/ac (0.28 kg/hectare) (Euphorbia species; 0.25 lb dicamba a.e. per acre): 72% | % control, 0.50 lb/ac (0.56 kg/hectare) (Euphorbia species; 0.50 lb dicamba a.e. per acre): 78% | control of a number of broadleaf weeds in field testing, in words (broadleaf weeds; emulsifiable and suspension concentrates, Sesbania macrocarpa, morning glory, velvetleaf, Palmer amaranth, fat hen, sicklepod): proven effective | field efficacy for control of broadleaf weeds compared with the diglycolamine salt of dicamba, in words (broadleaf weeds; field tests of emulsifiable concentrates): slightly more effective than the diglycolamine salt of dicamba
